# Data published in patent US20250136650A1, “COMPOSITIONS AND METHODS FOR DNA BINDING AND TRANSCRIPTIONAL REGULATION” (THE UNIVERSITY OF CHICAGO, priority 2021, published 2025).
# Where “and” joins values, the source holds several entries; their conditions need not be identical. Equal entries are not always repeated. Entries after “also recorded” stand apart in the source; their conditions may differ. Where two headings read alike, the source gives them in different places.
# Legend:
# UPR element (UPRE) = assay: EMSA, direct binding to UPRE DNA probe; settings: labeled UPRE DNA probe
# Method: (§1) The DNA binding dimer STR22 (shown in FIG. 21 and FIG. 27) was synthesized. STR22 was subjected to EMSA to measure binding to either the UPR element (UPRE) or AP-1 binding site (AP-1).
# Electrophoretic Mobility Shift Assays (EMSAs): For direct DNA binding experiments, STRs were serially diluted at 10× concentration in water and then 1 μL of STR solution was added to 9 μL of 5 nM IRD700-labeled DNA probe bearing either a UPRE or AP-1 motif in a final 1×binding buffer (20 mM HEPES pH 8.0, 150 mM NaCl, 5% glycerol, 1 mM EDTA, 2 mM MgCl2, 0.5 mg/mL BSA, 1 mM DTT, 0.05% NP-40). Samples were incubated for 1 hr at RT. 5 μL of each reaction was loaded on an 8% acrylamide, 0.5×TBE gel equilibrated to 4° C. Samples were resolved for 60 min at 110 V and 4° C. with 0.5×TBE+1 mM MgCl2 running buffer. Gels were pre-run at 110 V for 15 min prior to sample loading. For competition experiments, 30 or 60 nM STRs and 5 nM labeled UPRE probe were incubated with 0, 7.8, 13, 21.6, 36, 60 or 100 nM unlabeled competitor oligo for 1 hr at RT. Gels were imaged using a Li—COR Odyssey. ImageJ was used to quantify band intensity and the fraction of bound DNA was calculated by dividing the band intensity of bound DNA by the band intensity of free DNA from the vehicle treated lane. A four-parameter dose-response curve fit to a plot of normalized fraction bound DNA vs. log STR concentration yielded an the apparent KD. […]
# HeLa cells = assay: Fluorescence microscopy of cell penetration; format: cell-based, human
# Method: HeLa cells were treated with STR4-FITC (FIG. 4) or STR22-FITC (FIG. 5), at 5 μM for up to 24 hours. […] STR22 was retained at high levels for at least 24 hours following cell treatment.
# Fluorescence Microscopy and Quantitative Analysis. HeLa cells were seeded in 12-well chamber slides with 2,500 cells per well (Ibidi, 81201). Once cells reached 40-50% confluency, they were treated with either DMSO, or 5 μM FITC-labeled STR for indicated durations. For shorter treatment times (<24 hrs), cells were grown to 70-80% confluency before start of treatment.
# At the end of treatment, cells were washed with phosphate buffered saline (PBS) four times, fixed with 4% formaldehyde in PBS at room temperature for 10 mins, and then washed twice with PBS. Nuclei were labeled with DAPI (Thermo, D1306) in PBS at room temperature for 3 mins. Rubber gaskets and chambers were removed, and slides were dried in the dark at room temperature. When dry, cover glass (Fisher, #12-545 M) was mounted with 50 μL anti-fade mounting solution (Invitrogen, P36961), and sealed with nail polish. A Leica SP8 Laser Scanning Confocal with HyD detectors was used to image a single focal plane to accurately detect the DAPI and FITC signal. Identical microscope acquisition parameters were set and used within experiments to control for exposure. […] Loss-less TIFF files were employed to quantify fluorescence intensity.
# HIF1α = assay: Western blot of HIF1α under hypoxia, HeLa; format: cell-based, human; settings: hypoxia 1% O2 6 hr
# Method: To study the effects of STR22 on hypoxia-induced gene transcription factor DNA binding and target gene expression, the induction of HIF1α and downstream HRE-target genes like VEGFA, PDK1, PGK1 and GLUT1 in response to acute hypoxia (e.g., 1% 02 for 6 hr) was validated.
# Immunoblotting. Following indicated treatments, cells were first washed with ice-cold PBS. Whole-cell extracts were prepared by directly lysing cells with Laemmli sample buffer (Bio-rad, 1610747) supplemented with 2-Mercaptoethanol (Gibco, 21985023), protease inhibitor (Roche, 4693159001), PMSF (Roche, 10837091001) and phosphatase inhibitor (GB-450) at 4° C. Finally, protein samples were boiled at 95° C. for 5 mins. Western blotting was performed using antibodies for XBP1 (Biolegend, 9D11A43), HIF1α (Novus Biologicals, NB100-479), GAPDH (Santa Cruz Biotech, sc-32233) and α-tubulin (Invitrogen, MA1-19401) were used. Blots were imaged using Li—COR Odyssey Fc.
# [1] = tested on: HRE-regulated luciferase reporter; assay: 5xHRE-regulated luciferase reporter under hypoxia; format: cell-based, human; settings: HeLa, 1% O2, 24 hours
# Method: Luciferase Assays. Approximately 2×10^4 HeLa cells were seeded in the each well of a 96-well plate. Cells were co-transfected with 3×UPRE-luc (Addgene, 101788) and XBP1s overexpression construct or control vector using Lipofectamine 3000 (Invitrogen) for 4 hrs, which was then followed by treatment with STR22 for 24 hrs. Cells were then lysed in diluted cell culture lysis 5× buffer (Promega). 1× luciferase reagents (1 mM D-luciferin, 3 mM ATP, 15 mM MgSO4, 30 mM HEPES pH=7.8) were then added and the mixtures were read for luminescence. For hypoxia response experiments, cells were transfected with 5×HRE-luc (PGK1-derived HRE promoter, Addgene, 128095) vector using Lipofectamine 3000 (Invitrogen) for 4 hrs and then treated with STR22 under 1% 02 (hypoxia) for 24 hrs. Luminescence was read following the aforementioned protocol.
# UPRE consensus sequence = assay: Competitive EMSA with unlabeled UPRE consensus oligo; format: binding
# Method: as §1
# Electrophoretic Mobility Shift Assays (EMSAs): For direct DNA binding experiments, STRs were serially diluted at 10× concentration in water and then 1 μL of STR solution was added to 9 μL of 5 nM IRD700-labeled DNA probe bearing either a UPRE or AP-1 motif in a final 1×binding buffer (20 mM HEPES pH 8.0, 150 mM NaCl, 5% glycerol, 1 mM EDTA, 2 mM MgCl2, 0.5 mg/mL BSA, 1 mM DTT, 0.05% NP-40). Samples were incubated for 1 hr at RT. 5 μL of each reaction was loaded on an 8% acrylamide, 0.5×TBE gel equilibrated to 4° C. Samples were resolved for 60 min at 110 V and 4° C. with 0.5×TBE+1 mM MgCl2 running buffer. Gels were pre-run at 110 V for 15 min prior to sample loading. For competition experiments, 30 or 60 nM STRs and 5 nM labeled UPRE probe were incubated with 0, 7.8, 13, 21.6, 36, 60 or 100 nM unlabeled competitor oligo for 1 hr at RT. Gels were imaged using a Li—COR Odyssey. ImageJ was used to quantify band intensity and the fraction of bound DNA was calculated by dividing the band intensity of bound DNA by the band intensity of free DNA from the vehicle treated lane. A four-parameter dose-response curve fit to a plot of normalized fraction bound DNA vs. log STR concentration yielded an the apparent KD. Mobility shift data were excluded from analysis when higher order binding species were observed.
substance,measurement,setting,value
XBP1-derived stapled dimer: RRK^KNR^AAQTARDRKKA#LSELEQQVVDLE linked to RRK^KNR^AAQTARDRKKARLSEL#QQVVDLE; FIG. 27 [STR22],Kd,UPR element (UPRE),0.0142 µM and 0.011 µM
same,intracellular distribution / fluorescence (confocal),"HeLa cells; FITC-labeled analogs, 12 hours",distributed throughout both cytosolic and nuclear compartments
same,penetration of HeLa cells,"HeLa cells; FITC-labeled, 5 μM, up to 24 hours",penetration
same,induction of HIF1α protein,HIF1α,did not affect the induction of HIF1α protein; also recorded: not affected
same,hypoxia-induced HRE-regulated luciferase expression,[1],blocked this induction with potency equivalent to that observed in UPRE-reporter studies
same,competition by excess unlabeled UPRE oligonucleotide,UPRE consensus sequence,potently competed with excess unlabeled UPRE oligonucleotide
same,Ki,UPRE consensus sequence; read-out: Ki for the consensus sequence (EMSA),0.0286 µM
same,Ki,"UPRE consensus sequence; unit inferred, read-out: Ki, consensus sequence (FIG. 3 legend)",0.0286 µM
